# Test results from US20240110183A1, “ANTIFIBROTIC AND ANTITUMOR ACTIVITY OF CD63 BLOCKADE” (The Board of Trustees of the Leland Stanford Junior …, priority 2020, published 2024).
# Test system: HK2, NRK52E, NRK49F cell lines
# Assay: RT-qPCR analysis of kidney cell lines treated with TGFβ1
# Assay type: cell-based, human, rat
# Conditions: TGFβ1 10 ng/ml, FIG. 21
# Protocol: FIG. 21A-FIG. 21C. Activation of TGFβ1 signaling pathway elevated the expression of fibrotic related proteins in 3 kidney cell lines. (FIG. 21 FIG. 21A) Human epithelial (HK2), (FIG. 21 B) rat epithelial (NRK52E), (FIG. 21C) rat fibroblast (NRK49F) cell lines were treated with TGFβ1 (10 ng/ml) or TGFβ1 (10 ng/ml) plus LY2109761 (2.5 μM) for indicated times in hours.
# Activation of TGFβ1 signaling pathway elevated the expression of fibrotic related proteins in 3 kidney cell lines. Human epithelial (HK2), rat epithelial (NRK52E), rat fibroblast (NRK49F) cell lines were treated with TGFβ1 (10 ng/ml) or TGFβ1 (10 ng/ml) plus LY2109761 (2.5 μM) for times indicated in hours as shown in FIG. 21 A-C.
substance,measurement,setting,value
TGFβ1: TGFβ1 (10 ng/ml) used to activate the TGFβ1 signaling pathway in kidney cell lines,expression of CD63 and its known interactor TIMP1,"HK2, NRK52E, NRK49F",not increased
same,expression of fibrotic related proteins,"human epithelial (HK2), rat epithelial (NRK52E), rat fibroblast (NRK49F)",elevated
